Data as given in ChEMBL document CHEMBL4376892, “Identification of Parthenolide Dimers as Activators of Pyruvate Kinase M2 in Xenografts of Glioblastoma Multiforme in Vivo” (J Med Chem, 2020).
The source made the active and inactive calls. The calls are words filed in the database; no cut-off is given here.

Tests used:
U-251 = assay: Antiproliferative activity against human U251 cells assessed as reduction in cell viability after 72 hrs by MTT assay; assay type: functional, cell-based; settings: U-251, 72 h
U-118-MG [1] = assay: Inhibition of colony formation in human U118MG cells after 7 days; assay type: functional, cell-based
Pyruvate kinase PKM [2] = biological target: T1, Pyruvate kinase PKM (Homo sapiens, UniProt P14618); assay: Activation of PKM2 in human U87 cells assessed as increase in PKM2 tetramer formation at 0.5 to 1 uM after 48 hrs by chemical cross-linking based Western blot analysis; assay type: cell-based; settings: U-87MG ATCC
Pyruvate kinase PKM [3] = biological target: T1, Pyruvate kinase PKM; assay: Induction of tetrameric formation of recombinant human N-terminal 6His-tagged PKM2 expressed in Escherichia coli BL21 cells assessed as increase in particle size at 10 uM after 30 mins by dynamic laser light scattering analysis
U-118-MG [4] = assay: Effect on IKK-beta protein expression in human U118MG cells at 0.2 to 0.5 uM after 48 hrs by Western blot analysis; assay type: functional, cell-based
[5] = biological target: T2, Inhibitor of nuclear factor kappa-B kinase subunit beta (Homo sapiens) (UniProt O14920); assay: Effect on IKKbeta phosphorylation in human U118MG cells at 0.2 to 0.5 uM after 48 hrs by Western blot analysis; assay type: cell-based
T2 sequence (whole entry): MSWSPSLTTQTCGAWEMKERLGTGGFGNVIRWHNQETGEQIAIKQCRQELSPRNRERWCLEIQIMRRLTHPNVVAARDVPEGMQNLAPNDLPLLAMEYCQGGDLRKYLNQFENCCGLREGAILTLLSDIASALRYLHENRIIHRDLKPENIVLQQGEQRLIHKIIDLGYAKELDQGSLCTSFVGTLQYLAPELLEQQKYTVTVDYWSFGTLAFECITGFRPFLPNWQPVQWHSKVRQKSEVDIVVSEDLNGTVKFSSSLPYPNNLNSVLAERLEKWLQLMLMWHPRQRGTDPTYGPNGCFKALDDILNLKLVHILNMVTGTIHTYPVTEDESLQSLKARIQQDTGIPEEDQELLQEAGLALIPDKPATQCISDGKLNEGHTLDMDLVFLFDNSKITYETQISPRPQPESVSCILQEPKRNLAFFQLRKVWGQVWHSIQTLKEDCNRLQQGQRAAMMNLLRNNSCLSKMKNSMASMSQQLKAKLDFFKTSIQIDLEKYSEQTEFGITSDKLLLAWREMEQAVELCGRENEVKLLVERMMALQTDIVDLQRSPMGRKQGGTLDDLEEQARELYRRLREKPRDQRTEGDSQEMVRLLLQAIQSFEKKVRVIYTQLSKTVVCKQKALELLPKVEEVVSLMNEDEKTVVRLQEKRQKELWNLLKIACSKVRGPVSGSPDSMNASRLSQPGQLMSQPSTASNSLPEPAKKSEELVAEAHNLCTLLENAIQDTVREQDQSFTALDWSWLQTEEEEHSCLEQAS

Pyruvate kinase PKM [6] = biological target: T1, Pyruvate kinase PKM; assay: Activation of PKM2 in human U118MG cells assessed as inhibition of STAT3 protein expression at 2 uM after 48 hrs by Western blot analysis; assay type: cell-based
U-118-MG [7] = assay: Antiproliferative activity against human U118MG cells transfected with lentivirus expressing shNC assessed as reduction in cell viability after 24 hrs by MTT assay; assay type: functional, cell-based
U-87 MG = assay: Induction of apoptosis in human U87 cells transfected with lentivirus expressing shPKM2 assessed as late apoptotic cells after 48 hrs by Annexin-V-FITC/PI-staining based flow cytometric analysis (reference value: 1.25%); assay type: functional, U-87MG ATCC
U-118-MG [8] = assay: Induction of apoptosis in human U118MG cells assessed as viable cells after 48 hrs by Annexin-V-FITC/PI-staining based flow cytometric analysis (reference value: 96.7%); assay type: functional
U-118-MG [9] = assay: Induction of apoptosis in human U118MG cells assessed as necrotic cells after 48 hrs by Annexin-V-FITC/PI-staining based flow cytometric analysis (reference value: 1.37%); assay type: functional
Pyruvate kinase PKM [10] = biological target: T1, Pyruvate kinase PKM; assay: Covalent binding affinity to recombinant human N-terminal 6His-tagged PKM2 expressed in Escherichia coli BL21 Cells after 2 hrs by LC-MS/MS analysis
Pyruvate kinase PKM [11] = biological target: T1, Pyruvate kinase PKM; assay: Activation of recombinant human N-terminal 6His-tagged PKM2 expressed in Escherichia coli BL21 cells at 0.2 to 0.5 uM after 50 mins by fluorescence based analysis
U-118-MG [12] = assay: Antimigratory activity against human U118MG cells transfected with lentivirus expressing shNC at 2 uM incubated for 48 hrs by crystal violet staining based transwell assay; assay type: functional, cell-based
U-118-MG [13] = assay: Antiinvasive activity against human U118MG cells transfected with lentivirus expressing shNC at 2 uM incubated for 48 hrs by crystal violet staining based transwell assay; assay type: functional, cell-based

T1 sequence (P14618 2-531 limits assumed): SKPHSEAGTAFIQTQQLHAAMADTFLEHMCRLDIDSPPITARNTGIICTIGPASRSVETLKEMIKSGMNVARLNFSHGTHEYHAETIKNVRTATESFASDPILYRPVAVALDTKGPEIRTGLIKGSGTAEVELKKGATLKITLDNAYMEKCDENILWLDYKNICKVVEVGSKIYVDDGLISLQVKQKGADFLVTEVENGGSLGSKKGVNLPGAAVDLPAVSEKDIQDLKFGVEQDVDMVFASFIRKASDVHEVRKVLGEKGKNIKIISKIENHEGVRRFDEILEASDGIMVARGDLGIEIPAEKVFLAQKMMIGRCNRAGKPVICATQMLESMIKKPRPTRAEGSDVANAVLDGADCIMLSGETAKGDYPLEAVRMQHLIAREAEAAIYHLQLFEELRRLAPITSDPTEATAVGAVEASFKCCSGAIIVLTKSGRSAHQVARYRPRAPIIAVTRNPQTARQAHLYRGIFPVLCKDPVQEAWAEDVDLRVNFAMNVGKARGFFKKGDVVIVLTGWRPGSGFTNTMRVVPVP

C=C1C(=O)O[C@H]2[C@H]1CC/C(C(=O)OCCOCCOC(=O)/C1=C/CC[C@@]3(C)O[C@H]3[C@H]3OC(=O)C(=C)[C@@H]3CC1)=C\CC[C@@]1(C)O[C@@H]21
IC50 (U-251): 7.14 µM
inhibition (U-118-MG [1]): Dose-dependent effect
Activity (Pyruvate kinase PKM [2]): Active
Activity (Pyruvate kinase PKM [3]): Active
Activity (U-118-MG [4]): inactive
Activity [5]: inactive
Activity (Pyruvate kinase PKM [6]): Active
IC50 (U-118-MG [7]): 1.04 µM
Activity (U-87 MG): 2.76%
Activity (U-118-MG [8]): 12.5%
Activity (U-118-MG [9]): 6.01%
Activity (Pyruvate kinase PKM [10]): Active
Activity (Pyruvate kinase PKM [11]): Active
Activity (U-118-MG [12]): Active
Activity (U-118-MG [13]): Active
